Experimental data taken from patent publication US8055452B2, “Identification, monitoring and treatment of disease and characterization of biological condition using gene expression profiles” (Life Technologies Corporation, priority 2001, dated 2011).

Assays:
[1] = test system: inflammation index (Inflammation Gene Expression Panel loci); assay: Inflammation index in rheumatoid arthritis patients under therapy; type: in vivo, human
Text: FIG. 17A further illustrates the consistency of inflammatory gene expression, illustrated here with respect to 7 loci of (of the Inflammation Gene Expression Panel of Table 1), in a population of 44 normal, undiagnosed blood donors. For each individual locus is shown the range of values lying within ±2 standard deviations of the mean expression value, which corresponds to 95% of a normally distributed population. Notwithstanding the great width of the confidence interval (95%), the measured gene expression value (ΔCT)—remarkably—still lies within 10% of the mean, regardless of the expression level involved. As described in further detail below, for a given biological condition an index can be constructed to provide a measurement of the condition. This is possible as a result of the conjunction of two circumstances: (i) there is a remarkable consistency of Gene Expression Profiles with respect to a biological condition across a population and (ii) there can be employed procedures that provide substantially reproducible measurement of constituents in a Gene Expression Panel giving rise to a Gene Expression Profile, under measurement conditions wherein specificity and efficiencies of amplification for all constituents of the panel are substantially similar and which therefore provides a measurement of a biological condition. Accordingly, a function of the expression values of representative constituent loci of FIG. 17A is here used to generate an inflammation index value, which is normalized so that a reading of 1 corresponds to constituent expression values of healthy subjects, as shown in the right-hand portion of FIG. 17A.
In FIG. 17B, an inflammation index value was determined for each member of a population of 42 normal undiagnosed blood donors, and the resulting distribution of index values, shown in the figure, can be seen to approximate closely a normal distribution, notwithstanding the relatively small population size. The values of the index are shown relative to a 0-based median, with deviations from the median calibrated in standard deviation units. Thus […] of the population lies within +1 and −1 of a 0 value.
FIG. 17C illustrates the use of the same index as FIG. 17B, where the inflammation median for a normal population has been set to zero and both normal and diseased subjects are plotted in standard deviation units relative to that median. An inflammation index value was determined for each member of a normal, undiagnosed population of 70 individuals (black bars). The resulting distribution of index values, shown in FIG. 17C, can be seen to approximate closely a normal distribution. Similarly, index values were calculated for individuals from two diseased population groups, (1) rheumatoid arthritis patients treated with methotrexate (MTX) who are about to change therapy to more efficacious drugs (e.g., TNF inhibitors) (hatched bars), and (2) rheumatoid arthritis patients treated with disease modifying anti-rheumatoid drugs (DMARDS) other than MTX, who are about to change therapy to more efficacious drugs (e.g., MTX). […] This figure thus illustrates the utility of an index to derived from Gene Expression Profile data to evaluate disease status and to provide an objective and quantifiable treatment objective. When these two populations were treated appropriately, index values from both populations returned to a more normal distribution (data not shown here).
This subject in fact was also on a regimen of an anti-inflammation steroid (prednisone) that was being tapered; within approximately one week after the inflammation index was sampled, the subject experienced a significant flare of clinical symptoms.

[2] = test system: 5 genes of the Inflammation Gene Expression Panel; assay: Whole blood samples after prednisone dose, challenged with lipopolysaccharide, gene expression profile; type: in vivo, human; conditions: challenged with 0.1 ng/ml lipopolysaccharide
Protocol: The samples were taken at the time of administration (t=0) of the prednisone, then at two and 24 hours after such administration. Each whole blood sample was challenged by the addition of 0.1 ng/ml of lipopolysaccharide (a Gram-negative endotoxin) and a gene expression profile of the sample, post-challenge, was determined.

[3] = test system: Inflammation Gene Expression Panel of Table 1 (24 of 48 loci); assay: Inflammation Gene Expression Panel in whole blood after single oral dose of prednisone; type: in vivo; conditions: single human subject, single 60 mg oral dose
Text: (§1) For measuring the amount of a particular RNA in a sample, we have used methods known to one of ordinary skill in the art to extract and quantify transcribed RNA from a sample with respect to a constituent of a Gene Expression Panel. (See detailed protocols below. Also see PCT application publication number WO 98/24935 herein incorporated by reference for RNA analysis protocols). Briefly, RNA is extracted from a sample such as a tissue, body fluid, or culture medium in which a population of a subject might be growing. For example, cells may be lysed and RNA eluted in a suitable solution in which to conduct a DNAse reaction. First strand synthesis may be performed using a reverse transcriptase. Gene amplification, more specifically quantitative PCR assays, can then conducted and the gene of interest size calibrated against a marker such as 18S rRNA (Hirayama et al., Blood 92, 1998: 46-52). Samples are measured in multiple duplicates, for example, 4 replicates. Relative quantitation of the mRNA is determined by the difference in threshold cycles between the internal control and the gene of interest In an embodiment of the invention, quantitative PCR is performed using amplification, reporting agents and instruments such as those supplied commercially by Applied Biosystems (Foster City, Calif.). […]

[4] = test system: IL1A, IL1B, TNF, IFNG and IL10; assay: Acute Inflammation Index from whole blood gene expression of treated human subject; type: in vivo; conditions: single patient with optic neuritis; oral prednisone at 60 mg per day tapered to 10 mg per day, after IV steroid
Text: as §1

[5] = test system: inflammation index (Inflammation Gene Expression Panel loci); conditions: studies have shown; cited from earlier work
[6] = test system: inflammation index (Inflammation Gene Expression Panel loci); assay: Inflammation index in subject with inflammatory bowel disease; type: in vivo, human; conditions: single subject with inflammatory bowel disease
Text: FIG. 24 illustrates use of the inflammation index for assessment of a single subject suffering from inflammatory bowel disease, for whom treatment with Remicade was initiated in three doses. […] Again, the index, besides providing a measure of biological condition, is here used to measure the effectiveness of therapy (Remicade), as well as to provide a target for therapeutic intervention in terms of both dose and schedule.

[7] = test system: Inflammation 48A and 48B loci; bacterial Gene Expression Panel of 24 genes; assay: Whole blood gene expression response to infectious agents or their products; type: cell-based; conditions: E. coli filtrate with added polymyxin B vs filtrate alone
Text: FIGS. 27 through 41 illustrate the use of gene expression panels in early identification and monitoring of infectious disease. These figures plot the response, in expression products of the genes indicated, in whole blood, to the administration of various infectious agents or products associated with infectious agents. In each figure, the gene expression levels are “calibrated”, as that term is defined herein, in relation to baseline expression levels determined with respect to the whole blood prior to administration of the relevant infectious agent. […] The concentration change is shown ratiometrically, and the baseline level of 1 for a particular gene locus corresponds to an expression level for such locus that is the same, monitored at the relevant time after addition of the infectious agent or other stimulus, as the expression level before addition of the stimulus. […]
FIG. 27 uses a novel bacterial Gene Expression Panel of 24 genes, developed to discriminate various bacterial conditions in a host biological system. […] The final concentration immediately after administration of the stimulus was 100 ng/mL, and the ratiometric changes in expression, in relation to pre-administration levels, were monitored for each stimulus 2 and 6 hours after administration. […]
The responses were monitored at 2, 6, and 24 hours after administration. […]

[8] = 10 stable rheumatoid arthritis patients treated with Enbrel (FIG. 22)

Molecule: CN(Cc1cnc2nc(N)nc(N)c2n1)c1ccc(C(=O)N[C@@H](CCC(=O)O)C(=O)O)cc1 [methotrexate]
- inflammation index ([1]; 10 stable rheumatoid arthritis patients treated with methotrexate (FIG. 21)): elevated compared to normal
- inflammation index values in comparison to the normal distribution ([1]; rheumatoid arthritis patients treated with MTX who are about to change therapy (FIG. 17C)): skewed upward

Molecule: C[C@]12C=CC(=O)C=C1CC[C@@H]1[C@@H]2C(=O)C[C@@]2(C)[C@H]1CC[C@]2(O)C(=O)CO [prednisone]
- inhibitory effect on gene expression of the 5 loci ([2]; 24 hours post administration): no longer apparent
- number of the 5 loci with gene expression higher than at t=0 (rebound effect) ([2]; 24 hours post administration): 3
- gene expression of the 5 loci in relation to t=0 ([2]; two-hour sample): dramatically reduced gene expression
- inflammatory gene expression relative to baseline ([3]; 2 hr post dose): decreased expression of most of inflammation-related gene loci
- inflammatory gene expression relative to baseline ([3]; 24 hr post dose, loci reduced at 2 hours): elevated gene expression levels
- acute inflammation index [4]: goes up

Molecule: Enbrel
- inflammation index [1, 8]: comes much closer to normal
- patients with inflammation index in the normal range [1, 8]: 80%

Molecule: Remicade: another TNF inhibitor
- inflammation index ([1]; 10 stable rheumatoid arthritis patients treated with Remicade (FIG. 23), all but one of the patients): at or below normal
- inflammation index suggesting immunosuppressive response ([1]; two of the 10 rheumatoid arthritis patients treated with Remicade (FIG. 23)): abnormally low inflammation index
- infections in treated subjects [5]: associated with serious infections in some subjects
- inflammation index ([6]; 24 hours after the first treatment): returned to the normal range
- inflammation index ([6]; just prior to the second dose): elevated
- inflammation index ([6]; prior to the third dose): in the normal range

Molecule: polymyxin B
- effect on the response of IL1B locus to E. coli filtrate [7]: did not affect the response
